Assay results: US8258140B2 (Astrazeneca AB, priority 2009, dated 2012)

Molecular target: T1, Androgen Receptor (AR) in the LNCaP prostate carcinoma cell line (Homo sapiens, UniProt P10275, T878A)
T1 construct: cell based immuno-fluorescence assay using the LNCaP prostate epithelial cell line; host or cells: LNCaP clone FGC
T1 sequence (P10275 1-920 T878A): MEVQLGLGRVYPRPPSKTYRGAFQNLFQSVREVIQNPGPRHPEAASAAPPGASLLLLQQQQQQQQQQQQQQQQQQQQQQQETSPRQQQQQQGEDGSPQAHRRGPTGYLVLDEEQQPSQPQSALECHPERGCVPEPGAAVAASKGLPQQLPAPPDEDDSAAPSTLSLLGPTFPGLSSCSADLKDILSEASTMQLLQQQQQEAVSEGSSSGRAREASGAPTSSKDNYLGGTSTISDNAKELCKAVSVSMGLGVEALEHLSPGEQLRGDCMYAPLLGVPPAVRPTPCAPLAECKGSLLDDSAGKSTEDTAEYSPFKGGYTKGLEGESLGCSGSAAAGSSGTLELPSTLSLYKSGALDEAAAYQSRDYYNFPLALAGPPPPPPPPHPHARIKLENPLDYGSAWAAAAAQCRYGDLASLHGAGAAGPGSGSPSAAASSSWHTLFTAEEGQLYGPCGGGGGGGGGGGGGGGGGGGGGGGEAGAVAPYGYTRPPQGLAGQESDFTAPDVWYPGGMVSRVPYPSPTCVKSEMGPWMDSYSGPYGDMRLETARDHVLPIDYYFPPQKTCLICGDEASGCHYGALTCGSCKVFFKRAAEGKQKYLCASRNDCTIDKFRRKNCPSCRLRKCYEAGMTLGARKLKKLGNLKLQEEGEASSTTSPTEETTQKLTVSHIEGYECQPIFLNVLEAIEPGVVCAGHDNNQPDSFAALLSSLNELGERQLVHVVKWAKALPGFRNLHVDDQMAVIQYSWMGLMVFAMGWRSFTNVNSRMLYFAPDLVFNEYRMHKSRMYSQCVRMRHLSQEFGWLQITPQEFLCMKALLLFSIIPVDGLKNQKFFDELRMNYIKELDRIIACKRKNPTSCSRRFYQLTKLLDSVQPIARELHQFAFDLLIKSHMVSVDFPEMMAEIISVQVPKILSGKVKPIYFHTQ
Assay: LNCaP Androgen Receptor Down-Regulation Cell Assay (immunofluorescence end point)
Assay type: cell-based
Conditions: LNCaP cells, compound incubation 20-22 hours, concentration giving 50% reduction of the AR signal
Method in brief: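 LNCaP cells (6.5×10^3/well) in phenol-red-free RPMI with 5% charcoal-stripped FBS were treated with compound dilutions for 20–22 h at 37 °C. They were then formaldehyde-fixed, permeabilised, blocked and immunostained for AR with monoclonal antibody AR441.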

IC50 [µM]	Structure (SMILES)
0.25	CC(=O)N1CCN(CCOc2ccc(C3CCN(C4=Nn5c(nnc5C(F)(F)F)CC4)CC3)cc2)C[C@H]1C [Example 51, 6-[4-(4-{2-[(3R)-4-acetyl-3-methylpiperazin-1-yl]ethoxy}phenyl)piperidin-1-yl]-3-(trifluoromethyl)-7,8-dihydro[1,2,4]triazolo[4,3-b]pyridazine]
1.7	CN1CCN(CCOc2ccc(C3CCN(C4=Nn5c(nnc5C(F)(F)F)CC4)CC3)cc2)CC1=O [Example 37, 1-methyl-4-[2-(4-{1-[3-(trifluoromethyl)-7,8-dihydro[1,2,4]triazolo[4,3-b]pyridazin-6-yl]piperidin-4-yl}phenoxy)ethyl]piperazin-2-one]
1.2	CC(=O)N1CCN(CCCOc2ccc(C3CCN(C4=Nn5c(nnc5C(F)(F)F)CC4)CC3)cc2)CC1 [Example 4.1, 6-[4-[4-[3-(4-acetylpiperazin-1-yl)propoxy]phenyl]piperidin-1-yl]-3-(trifluoromethyl)-7,8-dihydro[1,2,4]triazolo[4,3-b]pyridazine]
1.8	CC(=O)N1CCN(CCOc2ccc(C3CCN(C4=Nn5c(nnc5C(F)(F)F)CC4)CC3)cc2)CC1 [Example 5.1, 6-(4-{4-[2-(4-acetylpiperazin-1-yl)ethoxy]phenyl}piperidin-1-yl)-3-(trifluoromethyl)-7,8-dihydro[1,2,4]triazolo[4,3-b]pyridazine]
